Results: ChEMBL document CHEMBL5465560, “Selectivity Literature for EUbOPEN Chemogenomic Library” (2024)

Legend:
[1] = target: cAMP-dependent protein kinase catalytic subunit alpha (Homo sapiens, UniProt P17612); experiment: Selectivity interaction (Millipore kinase profiler) EUB0000124b PRKACA; conditions: at 10 µM
[2] = target: Calcium/calmodulin-dependent protein kinase kinase 2 (Homo sapiens) (UniProt Q96RR4); experiment: Selectivity interaction (ActivX KiNativ screen (kinase selectivity in THP-1 cell lysates)) EUB0000639a CAMKK2; type: subcellular; conditions: lysate, at 0.04 µM
[3] = system: Phosphatidylinositol 4,5-bisphosphate 3-kinase catalytic subunit alpha isoform (Homo sapiens), P42336 [C420R]; experiment: Selectivity interaction (Ambit KINOMEscan) EUB0000092b PIK3CA; conditions: at 10 µM
[4] = target: T1, Inhibitor of nuclear factor kappa-B kinase subunit alpha (Homo sapiens) (UniProt O15111); experiment: Selectivity interaction (KinomeScan (DiscoverX)) EUB0000092b CHUK; conditions: at 10 µM
T1 sequence (whole entry): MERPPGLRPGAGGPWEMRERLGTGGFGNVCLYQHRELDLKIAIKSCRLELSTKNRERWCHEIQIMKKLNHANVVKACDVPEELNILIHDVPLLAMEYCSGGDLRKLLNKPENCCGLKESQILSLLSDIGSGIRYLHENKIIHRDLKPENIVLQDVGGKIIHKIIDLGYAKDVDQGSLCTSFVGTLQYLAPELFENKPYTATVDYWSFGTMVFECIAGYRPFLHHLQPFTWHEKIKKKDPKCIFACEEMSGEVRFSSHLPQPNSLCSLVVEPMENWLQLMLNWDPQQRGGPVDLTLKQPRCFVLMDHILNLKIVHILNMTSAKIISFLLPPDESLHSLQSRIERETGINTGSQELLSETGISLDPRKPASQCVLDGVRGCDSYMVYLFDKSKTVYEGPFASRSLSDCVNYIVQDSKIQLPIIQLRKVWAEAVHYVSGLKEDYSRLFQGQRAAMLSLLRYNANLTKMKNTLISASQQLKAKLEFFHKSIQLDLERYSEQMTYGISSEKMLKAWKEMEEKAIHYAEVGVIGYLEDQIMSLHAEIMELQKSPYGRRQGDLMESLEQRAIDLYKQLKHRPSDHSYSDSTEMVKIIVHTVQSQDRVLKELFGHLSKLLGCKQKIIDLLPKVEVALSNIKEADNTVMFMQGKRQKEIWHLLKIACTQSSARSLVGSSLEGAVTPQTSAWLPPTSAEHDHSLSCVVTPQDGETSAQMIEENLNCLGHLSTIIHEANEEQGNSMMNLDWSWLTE

[5] = target: Calcium/calmodulin-dependent protein kinase type II subunit alpha (Homo sapiens, UniProt Q9UQM7); experiment: Selectivity interaction (Kinase screening (Upstate/Millipore)) EUB0000604a CAMK2A
[6] = target: T2, Uncharacterized serine/threonine-protein kinase SBK3 (Homo sapiens) (UniProt P0C264); experiment: Selectivity interaction (Ambit KINOMEscan and KiNATiv profiling in Jurkat cells) EUB0000090b SBK3; type: cell-based; conditions: at 1 µM
T2 sequence (whole entry): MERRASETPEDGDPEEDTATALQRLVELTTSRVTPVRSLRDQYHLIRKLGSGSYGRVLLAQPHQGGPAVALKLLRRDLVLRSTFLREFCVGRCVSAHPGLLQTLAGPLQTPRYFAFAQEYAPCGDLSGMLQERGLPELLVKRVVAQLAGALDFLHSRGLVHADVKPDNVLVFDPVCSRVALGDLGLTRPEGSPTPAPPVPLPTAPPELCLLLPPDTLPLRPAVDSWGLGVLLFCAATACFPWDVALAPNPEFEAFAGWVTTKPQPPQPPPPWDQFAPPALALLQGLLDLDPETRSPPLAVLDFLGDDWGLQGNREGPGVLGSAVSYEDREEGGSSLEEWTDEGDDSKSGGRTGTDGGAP

[7] = target: T3, Serine/threonine-protein kinase TAO2 (Homo sapiens) (UniProt Q9UL54); experiment: Selectivity interaction (KinomeScan (DiscoverX)) EUB0001619a TAOK2; conditions: at 1 µM
T3 sequence (whole entry): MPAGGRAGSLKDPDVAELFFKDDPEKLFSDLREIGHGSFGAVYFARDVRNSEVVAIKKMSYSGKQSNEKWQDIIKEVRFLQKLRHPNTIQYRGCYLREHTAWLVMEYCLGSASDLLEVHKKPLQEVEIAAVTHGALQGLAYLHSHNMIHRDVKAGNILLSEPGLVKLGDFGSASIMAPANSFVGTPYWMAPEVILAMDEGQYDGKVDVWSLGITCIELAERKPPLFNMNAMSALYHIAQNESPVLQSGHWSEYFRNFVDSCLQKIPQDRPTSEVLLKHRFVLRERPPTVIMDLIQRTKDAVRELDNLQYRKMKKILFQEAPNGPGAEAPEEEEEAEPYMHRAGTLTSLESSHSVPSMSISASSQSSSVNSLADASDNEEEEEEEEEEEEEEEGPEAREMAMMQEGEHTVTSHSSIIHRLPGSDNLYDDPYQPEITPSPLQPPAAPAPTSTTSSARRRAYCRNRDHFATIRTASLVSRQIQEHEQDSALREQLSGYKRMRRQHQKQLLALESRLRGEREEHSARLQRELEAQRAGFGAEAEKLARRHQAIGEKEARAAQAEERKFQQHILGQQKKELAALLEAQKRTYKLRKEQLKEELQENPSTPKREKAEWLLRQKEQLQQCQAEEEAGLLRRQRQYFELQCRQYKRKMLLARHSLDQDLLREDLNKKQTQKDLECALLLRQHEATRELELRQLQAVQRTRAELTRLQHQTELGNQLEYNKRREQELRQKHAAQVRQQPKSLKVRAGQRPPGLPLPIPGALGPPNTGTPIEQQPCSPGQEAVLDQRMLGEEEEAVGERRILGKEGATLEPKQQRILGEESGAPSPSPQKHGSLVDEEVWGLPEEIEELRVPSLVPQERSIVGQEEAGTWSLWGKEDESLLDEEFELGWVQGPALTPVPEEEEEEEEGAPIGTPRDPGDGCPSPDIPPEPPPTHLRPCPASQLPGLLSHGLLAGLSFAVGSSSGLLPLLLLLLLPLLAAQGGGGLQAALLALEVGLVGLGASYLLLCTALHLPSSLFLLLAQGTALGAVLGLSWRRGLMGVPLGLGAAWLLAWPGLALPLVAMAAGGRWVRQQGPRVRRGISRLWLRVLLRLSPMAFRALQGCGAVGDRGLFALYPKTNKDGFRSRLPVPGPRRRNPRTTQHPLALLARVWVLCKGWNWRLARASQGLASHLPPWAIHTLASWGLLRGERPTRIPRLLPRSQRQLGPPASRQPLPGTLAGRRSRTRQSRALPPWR

[8] = target: Ribosomal protein S6 kinase beta-2 (Homo sapiens) (UniProt Q9UBS0); experiment: Selectivity interaction (ActivX KiNativ screen (ex vivo kinase selectivity in human PBMCs)) EUB0001619a RPS6KB2; type: cell-based; conditions: PBMC, at 1 µM
Ribosomal protein S6 kinase beta-2 (Homo sapiens), sequence (Q9UBS0 whole entry): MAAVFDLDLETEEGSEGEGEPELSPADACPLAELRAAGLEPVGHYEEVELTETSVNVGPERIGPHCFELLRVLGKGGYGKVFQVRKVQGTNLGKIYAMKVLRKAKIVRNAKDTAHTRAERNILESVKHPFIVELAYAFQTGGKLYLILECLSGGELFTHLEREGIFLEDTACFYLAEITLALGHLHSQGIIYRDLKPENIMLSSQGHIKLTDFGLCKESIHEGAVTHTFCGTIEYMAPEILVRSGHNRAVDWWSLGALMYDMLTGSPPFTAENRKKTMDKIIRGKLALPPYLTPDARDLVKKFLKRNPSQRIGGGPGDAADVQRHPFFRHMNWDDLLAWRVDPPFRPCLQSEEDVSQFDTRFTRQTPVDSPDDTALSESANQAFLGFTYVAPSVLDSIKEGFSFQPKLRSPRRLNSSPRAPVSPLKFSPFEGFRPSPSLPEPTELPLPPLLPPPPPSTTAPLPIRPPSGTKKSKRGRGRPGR

Calcium/calmodulin-dependent protein kinase kinase 2 (Homo sapiens), sequence (Q96RR4 2-588 limits assumed): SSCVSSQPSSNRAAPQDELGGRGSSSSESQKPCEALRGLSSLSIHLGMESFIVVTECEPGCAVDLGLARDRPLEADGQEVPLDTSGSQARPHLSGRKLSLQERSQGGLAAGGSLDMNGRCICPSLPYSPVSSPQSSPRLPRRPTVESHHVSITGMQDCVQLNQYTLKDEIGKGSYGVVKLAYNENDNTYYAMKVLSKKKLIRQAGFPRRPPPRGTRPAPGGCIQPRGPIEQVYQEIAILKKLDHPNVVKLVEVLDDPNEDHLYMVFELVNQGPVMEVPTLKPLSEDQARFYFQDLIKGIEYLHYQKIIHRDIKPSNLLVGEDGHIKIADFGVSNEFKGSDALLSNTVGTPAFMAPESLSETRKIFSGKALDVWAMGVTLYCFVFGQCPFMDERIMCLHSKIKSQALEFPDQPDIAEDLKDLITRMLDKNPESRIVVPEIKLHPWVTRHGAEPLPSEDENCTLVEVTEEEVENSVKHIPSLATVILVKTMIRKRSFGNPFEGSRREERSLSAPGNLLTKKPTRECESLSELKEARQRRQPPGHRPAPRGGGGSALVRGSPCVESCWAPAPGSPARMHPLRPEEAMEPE
Phosphatidylinositol 4,5-bisphosphate 3-kinase catalytic subunit alpha isoform (Homo sapiens), P42336 [C420R], sequence (P42336 whole entry C420R, canonical isoform): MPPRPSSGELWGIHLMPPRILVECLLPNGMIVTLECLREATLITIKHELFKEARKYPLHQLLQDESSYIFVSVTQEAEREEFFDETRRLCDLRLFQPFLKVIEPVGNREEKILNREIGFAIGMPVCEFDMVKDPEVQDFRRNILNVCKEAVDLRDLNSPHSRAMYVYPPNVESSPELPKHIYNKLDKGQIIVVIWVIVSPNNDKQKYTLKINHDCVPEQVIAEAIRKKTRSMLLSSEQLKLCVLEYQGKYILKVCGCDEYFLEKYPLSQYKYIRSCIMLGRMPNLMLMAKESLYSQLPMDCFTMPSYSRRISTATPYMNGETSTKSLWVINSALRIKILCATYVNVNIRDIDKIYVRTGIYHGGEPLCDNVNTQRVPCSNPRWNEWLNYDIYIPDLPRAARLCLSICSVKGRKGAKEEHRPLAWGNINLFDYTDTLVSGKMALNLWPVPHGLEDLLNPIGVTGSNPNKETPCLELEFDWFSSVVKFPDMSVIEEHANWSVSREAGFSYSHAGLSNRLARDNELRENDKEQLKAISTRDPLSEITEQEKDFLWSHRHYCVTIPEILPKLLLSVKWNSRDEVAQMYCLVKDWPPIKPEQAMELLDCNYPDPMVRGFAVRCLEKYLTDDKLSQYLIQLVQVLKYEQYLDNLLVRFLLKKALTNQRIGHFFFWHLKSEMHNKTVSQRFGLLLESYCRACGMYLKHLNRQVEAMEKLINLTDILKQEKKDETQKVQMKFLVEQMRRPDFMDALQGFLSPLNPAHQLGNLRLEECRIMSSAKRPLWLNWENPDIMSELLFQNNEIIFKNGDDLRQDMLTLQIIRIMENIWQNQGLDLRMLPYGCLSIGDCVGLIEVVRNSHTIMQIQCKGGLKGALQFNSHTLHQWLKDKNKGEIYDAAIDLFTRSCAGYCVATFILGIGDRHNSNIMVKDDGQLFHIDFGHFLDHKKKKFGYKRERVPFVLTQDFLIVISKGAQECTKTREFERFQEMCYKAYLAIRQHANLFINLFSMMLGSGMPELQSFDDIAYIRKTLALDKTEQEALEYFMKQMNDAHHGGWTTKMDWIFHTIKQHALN
Calcium/calmodulin-dependent protein kinase type II subunit alpha, sequence (Q9UQM7 whole entry): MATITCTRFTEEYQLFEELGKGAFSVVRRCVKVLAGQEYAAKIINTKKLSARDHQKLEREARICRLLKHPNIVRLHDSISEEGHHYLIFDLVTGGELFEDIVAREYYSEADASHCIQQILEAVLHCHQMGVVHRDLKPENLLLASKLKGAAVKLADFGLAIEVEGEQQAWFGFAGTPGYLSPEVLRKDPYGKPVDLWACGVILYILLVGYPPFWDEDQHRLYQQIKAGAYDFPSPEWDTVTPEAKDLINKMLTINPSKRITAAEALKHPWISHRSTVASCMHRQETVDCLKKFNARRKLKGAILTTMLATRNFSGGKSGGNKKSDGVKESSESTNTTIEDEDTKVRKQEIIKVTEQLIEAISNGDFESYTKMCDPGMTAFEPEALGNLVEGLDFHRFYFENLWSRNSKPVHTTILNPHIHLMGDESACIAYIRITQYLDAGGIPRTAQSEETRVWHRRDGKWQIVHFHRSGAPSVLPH

Question: With `CC(=O)Nc1cccc(-n2c(=O)n(C3CC3)c(=O)c3c(Nc4ccc(I)cc4F)n(C)c(=O)c(C)c32)c1` as the compound, how does the % of control [1] read?
Answer: Its % of control is 98%.

Question: With `CC[C@@H]1[C@H](F)C(=O)N[C@@H]1COc1nccc2cc(C(N)=O)c(OC)cc12` [ZIMLOVISERTIB] as the compound, how does the % of inhibition [2] read?
Answer: Its % of inhibition is -13%.

Question: With `CCC(=O)N1CCN(c2ccc(-n3c(=O)ccc4cnc5ccc(-c6cnc7ccccc7c6)cc5c43)cc2C(F)(F)F)CC1` as the compound, how does the % of control [3] read?
Answer: Its % of control is 0.7%.

Question: And the % of control [4]?
Answer: Its % of control is 41%.

Question: Which % of inhibition [5] does the source give for `Cc1cnc(Nc2ccc(F)cc2Cl)nc1-c1c[nH]c(C(=O)N[C@H](CO)c2cccc(Cl)c2)c1` here?
Answer: The % of inhibition was 1%.

Question: `CN(C)C/C=C/C(=O)Nc1ccc(C(=O)N2CCCC(Nc3ncc(Cl)c(-c4c[nH]c5ccccc45)n3)C2)cc1` (stereo not drawn) was tested. Which % of control [6] did it give?
Answer: Its % of control is 82%.

Question: How did the % of control [7] turn out when `N#Cc1cccc(-c2c[nH]c3ncnc(N4CCOCC4)c23)c1` was run?
Answer: Its % of control is 100%.

Question: And the % of inhibition [8]?
Answer: Its % of inhibition is -10%.
